Experimental findings from patent US6407124B1, “Carbon substituted aminothiazole inhibitors of cyclin dependent kinases” (Bristol-Myers Squibb Company, priority 1998, dated 2002) are described below.

In turn, `CC(=O)Nc1ncc(/C=C/c2ncc(C(C)(C)C)o2)s1` [Example 2, N-[(E)-5-(2-(5-t-butyl-oxazol-2-yl)-vinyl)-thiazol-2-yl]-acetamide] returned a melting point of 275 °C.
For `CCOC(=O)/C=C/c1cnc(NC(C)=O)s1` [Example 1, Ethyl 3-((E)-2-acetamido-thiazol-5-yl)-acrylate], the melting point fell in the range of 239 to 240 °C.

As usually defined, the melting point is the temperature of the solid-liquid transition.
